In EP1914236A1 (Ortho-McNeil Pharmaceutical, Inc., priority 2002, dated 2003):
pKi: −log10 of the molar value.

Biological target: T1, human B2 bradykinin receptors (Homo sapiens, UniProt P30411)
T1 construct: purchased Receptor Biology, Inc. (Baltimore, MD); host or cells: CHO-K1 cells transfected with the human B2 receptor (membranes)
T1 sequence (P30411 1-391): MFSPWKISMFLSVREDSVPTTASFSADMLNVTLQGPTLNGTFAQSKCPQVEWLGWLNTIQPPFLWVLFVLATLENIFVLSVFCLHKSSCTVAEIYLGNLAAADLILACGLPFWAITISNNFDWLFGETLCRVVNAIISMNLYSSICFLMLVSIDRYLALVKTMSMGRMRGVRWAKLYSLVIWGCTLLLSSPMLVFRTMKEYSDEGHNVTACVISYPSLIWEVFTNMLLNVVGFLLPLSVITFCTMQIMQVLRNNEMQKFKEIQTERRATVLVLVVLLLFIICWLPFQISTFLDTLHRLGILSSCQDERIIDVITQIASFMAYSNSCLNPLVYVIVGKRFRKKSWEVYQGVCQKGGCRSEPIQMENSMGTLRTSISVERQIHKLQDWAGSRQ
Experiment: Bradykinin B2 (BK2) Receptor Binding Assay
Settings: membranes of CHO-K1 cells transfected with human B2 bradykinin receptors; ~0.25 nM [3H]NPC17731; 60 min at 25°C
Protocol: Cell membranes of CHO-K1 cells transfected with human B2 bradykinin receptors (CH)-hB2) were purchased from Receptor Biology, Inc. (Baltimore,MD).
Samples were harvested on a Brandel Cell Harvester on to Wallac filtermat B sheets (96 sample format), and washed three times with 2 mL cold HEPES-buffer (10 mM, pH 7.5), and dried in a microwave oven.
The data were used to calculate either the % inhibition compared to control binding (when only a single concentration of test compound was evaluated) or a Ki value (when a range of concentrations were tested). Background was subtracted from mean cpm values and % inhibition was calculated as: [(total dpm-test compound dpm)/(total dpm-nonspecific dpm)]x100. Kd and Ki values were calculated using GraphPad PRISM data analysis program.

SMILES | pKi
Cc1ccc2cccc(OCc3c(Cl)ccc(N(C)C(=O)Cc4ccc(C(=O)c5cccnc5)n4C)c3Cl)c2n1 [Compound 33] | 5.86
Cc1ccc2cccc(OCc3c(Cl)ccc(N(C)C(=O)Cc4ccc(C(=O)C5CCCCC5)n4C)c3Cl)c2n1 [Compound 30] | 5.75
COc1ccc(C(=O)c2cc(CC(=O)N(C)c3ccc(Cl)c(COc4cccc5ccc(C)nc45)c3Cl)n(C)c2)cc1 [Compound 2, N-[2,4-Dichloro-3-(2-methyl-quinolin-8-yloxymethyl)-phenyl]-2-[4-(4-methoxybenzoyl)-1-methyl-1 H-pyrrol-2-yl]-N-methyl-acetamide] | 6.29
Cc1ccc(-c2ccc(CC(=O)N(C)c3ccc(C)c(COc4cccc5ccc(C)nc45)c3C)n2C)cc1 [Compound 98, N-[2,4-Dimethyl-3-(2-methyl-quinolin-8-yloxymethyl)-phenyl]-N-methyl-2-(1-methyl-5-p-tolyl-1H-pyrrol-2-yl)-acetamide] | 5.44
Cc1ccc2cccc(OCc3cccc(N(C)C(=O)Cc4ccc(C(=O)c5cccc(C#N)c5)n4C)c3Cl)c2n1 [Compound 116, N-[2-Chloro-3-(2-methyl-quinolin-8-yloxymethyl)-phenyl]-2-[5-(3-cyanobenzoyl)-1-methyl-1 H-pyrrol-2-yl]-N-methyl-acetamide] | 4.75
Cc1ccc2cccc(OCc3c(Cl)ccc(N(C)C(=O)Cc4ccc(C(=O)c5ccc(C)s5)n4C)c3Cl)c2n1 [Compound 41] | 6.15
Cc1ccc2cccc(OCc3c(Cl)ccc(N(C)C(=O)Cc4ccc(C(=O)C=Cc5ccccc5)n4C)c3Cl)c2n1 [Compound 27] | 5.42
Cc1ccc2cccc(OCc3c(Cl)ccc(N(C)C(=O)Cc4ccc(C(=O)c5ccc(F)cc5)n4C)c3Cl)c2n1 [Compound 34] | 5.94
Cc1ccc2cccc(OCc3c(Cl)ccc(N(C)C(=O)Cc4ccc(C(=O)c5ccccc5)n4C)c3Cl)c2n1 [Compound 29] | 5.64
Cc1ccc2cccc(OCc3c(Cl)ccc(N(C)C(=O)Cc4cc(C(=O)c5ccc(S(C)(=O)=O)cc5)cn4C)c3Cl)c2n1 [Compound 1, N-[2,4-Dichloro-3-(2-methyl-quinolin-8-yloxymethyl)-phenyl]-2-[4-(4-methanesulfonyl-benzoyl)-1-methyl-1 H-pyrrol-2-yl]-N-methyl-acetamide] | 5.54
COc1ccc(-c2ccc(CC(=O)N(C)c3ccc(C)c(COc4cccc5ccc(C)nc45)c3C)n2C)cc1 [Compound 96, N-[2,4-Dimethyl-3-(2-methyl-quinolin-8-yloxymethyl)-phenyl]-2-[5-(4-methoxyphenyl)-1-methyl-1H-pyrrol-2-yl]-N-methyl-acetamide] | 5.67
Cc1ccc2cccc(OCc3c(Cl)ccc(N(C)C(=O)Cc4ccc(C(=O)CN(C)c5ccccc5)n4C)c3Cl)c2n1 [Compound 24] | 5.27
CSc1ccc(C(=O)c2ccc(CC(=O)N(C)c3ccc(Cl)c(COc4cccc5ccc(C)nc45)c3Cl)n2C)s1 [Compound 43] | 6.17
Cc1ccc2cccc(OCc3c(Cl)ccc(N(C)C(=O)Cc4ccc(C(=O)c5ccc(CN(C)C)cc5)n4C)c3Cl)c2n1 [Compound 47] | 6.29
Cc1ccc2cccc(OCc3c(Cl)ccc(N(C)C(=O)Cc4ccc(C(=O)c5ccc(C(F)(F)F)cc5)n4C)c3Cl)c2n1 [Compound 51] | 6.32
CCCN(C(=O)Cc1ccc(C(=O)c2ccc(C#N)cc2)n1C)c1ccc(Cl)c(COc2cccc3ccc(C)nc23)c1Cl [Compound 19, 2-[5-(4-Cyano-benzoyl)-1-methyl-1H-pyrrol-2-yl]-N-[2,4-dichloro-3-(2-methyl-quinolin-8-yloxymethyl)-phenyl]-N-propyl-acetamide] | 5.41
Cc1ccc2cccc(OCc3c(Cl)ccc(N(C)C(=O)Cc4ccc(C(=O)C(C)(C)C)n4C)c3Cl)c2n1 [Compound 31] | 5.77
Cc1ccc2cccc(OCc3c(Cl)ccc(N(C)C(=O)Cc4cc(C(=O)c5ccc(C#N)cc5)cs4)c3Cl)c2n1 [Compound 115, 2-[4-(4-Cyano-benzoyl)-thiophen-2-yl]-N-[2,4-dichloro-3-(2-methyl-quinolin-8-yloxymethyl)-phenyl]-N-methyl-acetamide] | 8.19
COc1ccc(C(=O)c2ccc(CCC(=O)N(C)c3ccc(C)c(COc4cccc5ccc(C)nc45)c3C)s2)cc1 [Compound 106] | 6.43
Cc1ccc2cccc(OCc3c(Cl)ccc(N(C)C(=O)Cc4ccc(C(=O)CN5CCCC5)n4C)c3Cl)c2n1 [Compound 37] | 6.07
Cc1ccc2cccc(OCc3c(Cl)ccc(N(C)C(=O)Cc4ccc(C(=O)c5ccc(Br)cc5)n4C)c3Cl)c2n1 [Compound 35] | 5.98
Cc1ccc2cccc(OCc3c(Cl)ccc(N(C)C(=O)Cc4ccc(C(=O)c5cnc(Cl)c(Cl)c5)n4C)c3Cl)c2n1 [Compound 52] | 6.37
Cc1nc2c(OCc3c(Cl)ccc(N(C)C(=O)Cc4ccc(C(=O)c5ccc(S(C)(=O)=O)cc5)n4C)c3Cl)cccn2c1Br [Compound 103, N-[3-(3-Bromo-2-methyl-imidazo[1,2-a]pyridin-8-yloxymethyl)-2,4-dichlorophenyl]-2-[5-(4-methanesulfonyl-benzoyl)-1-methyl-1H-pyrrol-2-yl]-N-methyl-acetamide] | 7.16
Cc1ccc2cccc(OCc3c(Cl)ccc(N(C)C(=O)Cc4ccc(C(=O)c5ccc(Cl)s5)n4C)c3Cl)c2n1 [Compound 25] | 5.38
CCN(CC)CC(=O)c1ccc(CC(=O)N(C)c2ccc(Cl)c(COc3cccc4ccc(C)nc34)c2Cl)n1C [Compound 48] | 6.29
Cc1ccc2cccc(OCc3c(Cl)ccc(N(C)C(=O)Cc4ccc(C(=O)c5ccc6ccccc6c5)n4C)c3Cl)c2n1 [Compound 26] | 5.39

Further lines, results first:

pKi | SMILES
6.06 | CC(=O)Nc1ccccc1C(=O)c1ccc(CC(=O)N(C)c2ccc(Cl)c(COc3cccc4ccc(C)nc34)c2Cl)n1C [Compound 36]
5.81 | COc1ccc(C(=O)c2c(C)cc(CC(=O)Nc3ccc(Cl)c(COc4cccc5ccc(C)nc45)c3Cl)n2C)cc1 [Compound 120]
6.37 | Cc1ccc2cccc(OCc3c(Cl)ccc(N(C)C(=O)Cc4ccc(C(=O)c5ccc(N(C)C)cc5)n4C)c3Cl)c2n1 [Compound 118, N-[2,4-Dichloro-3-(2-methyl-quinolin-8-yloxymethyl)-phenyl]-2-[5-(4-dimethylamino-benzoyl)-1-methyl-1H-pyrrol-2-yl]-N-methyl-acetamide]
6.05 | Cc1ccc2cccc(OCc3c(Cl)ccc(N(C)C(=O)CCc4ccc(C(=O)c5ccccc5)s4)c3Cl)c2n1 [Compound 105]
4.85 | COc1ccc(C(=O)c2ccc(CC(=O)Nc3ccc(Cl)c(COc4cccc5ccc(C)nc45)c3Cl)n2C)cc1 [Compound 119]
6.19 | Cc1ccc2cccc(OCc3c(Cl)ccc(N(C)C(=O)Cc4ccc(C(=O)c5cccc(C#N)c5)n4C)c3Cl)c2n1 [Compound 44]
6.47 | Cc1ccc2cccc(OCc3c(Cl)ccc(N(C)C(=O)Cc4ccc(C(=O)c5ccsc5)n4C)c3Cl)c2n1 [Compound 55]
4.70 | Cc1ccc2cccc(OCc3c(Cl)ccc(NC(=O)Cc4cc(C)c(C(=O)c5ccc(N)cc5)n4C)c3Cl)c2n1 [Compound 121]
6.09 | Cc1ccc2cccc(OCc3c(Cl)ccc(N(C)C(=O)Cc4ccc(C(=O)c5cccc6ccccc56)n4C)c3Cl)c2n1 [Compound 38]
5.27 | CCCCCC(=O)c1ccc(CC(=O)N(C)c2ccc(Cl)c(COc3cccc4ccc(C)nc34)c2Cl)n1C [Compound 23, N-[2,4-Dichloro-3-(2-methyl-quinolin-8-yloxymethyl)-phenyl]-2-(5-hexanoyl-1-methyl-1H-pyrrol-2-yl)-N-methyl-acetamide]
6.79 | Cc1ccc2cccc(OCc3c(Cl)ccc(N(C)C(=O)Cc4ccc(C(=O)c5ccc(S(N)(=O)=O)cc5)n4C)c3Cl)c2n1 [Compound 70]
7.39 | Cc1ccc2cccc(OCc3c(Cl)ccc(N(C)C(=O)Cc4ccc(C(=O)c5ccc(C#N)cc5)[nH]4)c3Cl)c2n1 [Compound 6, 2-[5-(4-Cyano-benzoyl)-1 H-pyrrol-2-yl]-N-[2,4-dichloro-3-(2-methyl-quinolin-8-yloxymethyl)-phenyl]-N-methyl-acetamide]
6.51 | CCOc1ccc(C(=O)c2ccc(CCC(=O)N(C)c3ccc(C)c(COc4cccc5ccc(C)nc45)c3C)n2C)cn1 [Compound 86]
6.44 | Cc1ccc2cccc(OCc3c(Cl)ccc(N(C)C(=O)Cc4ccc(C(=O)c5cccc(N)c5)n4C)c3Cl)c2n1 [Compound 57]
6.45 | Cc1ccc(C(=O)c2ccc(CC(=O)N(C)c3ccc(Cl)c(COc4cccc5ccc(C)nc45)c3Cl)n2C)cc1 [Compound 54]
6.12 | Cc1ccc2cccc(OCc3c(Cl)ccc(N(C)C(=O)Cc4ccc(C(=O)c5ccc(Cl)cc5)n4C)c3Cl)c2n1 [Compound 40]
6.25 | Cc1ccc2cccc(OCc3c(Cl)ccc(N(C)C(=O)Cc4ccc(C(=O)c5ccc(CN6CCCC6)cc5)n4C)c3Cl)c2n1 [Compound 46, N-[2,4-Dichloro-3-(2-methyl-quinolin-8-yloxymethyl)-phenyl]-N-methyl-2-[l-methyl-5-(4-pyrrolidin-1-ylmethyl-benzoyl)-1H-pyrrol-2-yl]-acetamide]
